Structures are written as SMILES.

What all share (assay type): biochemical
Test [1] concerns the target T1, Itk (Homo sapiens, UniProt Q08881).
T1 sequence (Q08881 1-620): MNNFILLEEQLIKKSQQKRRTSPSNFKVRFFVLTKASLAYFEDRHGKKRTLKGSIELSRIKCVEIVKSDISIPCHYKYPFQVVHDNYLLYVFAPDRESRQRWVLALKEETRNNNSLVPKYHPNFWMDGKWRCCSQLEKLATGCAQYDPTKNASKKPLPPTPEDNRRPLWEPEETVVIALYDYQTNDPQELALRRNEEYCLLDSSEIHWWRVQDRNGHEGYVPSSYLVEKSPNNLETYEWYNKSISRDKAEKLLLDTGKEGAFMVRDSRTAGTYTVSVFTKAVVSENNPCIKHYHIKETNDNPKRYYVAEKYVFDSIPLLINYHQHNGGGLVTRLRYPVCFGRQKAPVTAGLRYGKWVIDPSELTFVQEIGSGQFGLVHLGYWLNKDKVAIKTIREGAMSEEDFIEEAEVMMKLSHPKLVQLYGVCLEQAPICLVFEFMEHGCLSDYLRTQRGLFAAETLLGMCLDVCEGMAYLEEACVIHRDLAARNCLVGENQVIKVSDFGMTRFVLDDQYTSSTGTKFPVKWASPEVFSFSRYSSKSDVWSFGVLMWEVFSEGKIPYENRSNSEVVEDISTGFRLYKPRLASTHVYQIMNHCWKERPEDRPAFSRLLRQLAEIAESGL
The test can be described thus: ITK Inhibition Assay (Radiometric), radioactive-phosphate incorporation. The conditions noted are these: enzyme inhibition data (Ki), Table 11; radiometric or UV assay not stated. A digest of the protocol:
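Radiometric 33P incorporation into SAM68 peptide (D332-443) with filter capture and scintillation counting; 10 min pre-incubation then 10 min reaction at 25° C. IC50 format: 30 nM Itk, 15 μM ATP, 2 μM peptide, HEPES pH 7.5. Ki(app) format: 50 nM Itk, 7.5 μM ATP, 3 μM peptide, MOPS pH 7.0.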

For test [2], the target named is T2, JAK3 (Homo sapiens, UniProt P52333).
T2 sequence (P52333 1-1124): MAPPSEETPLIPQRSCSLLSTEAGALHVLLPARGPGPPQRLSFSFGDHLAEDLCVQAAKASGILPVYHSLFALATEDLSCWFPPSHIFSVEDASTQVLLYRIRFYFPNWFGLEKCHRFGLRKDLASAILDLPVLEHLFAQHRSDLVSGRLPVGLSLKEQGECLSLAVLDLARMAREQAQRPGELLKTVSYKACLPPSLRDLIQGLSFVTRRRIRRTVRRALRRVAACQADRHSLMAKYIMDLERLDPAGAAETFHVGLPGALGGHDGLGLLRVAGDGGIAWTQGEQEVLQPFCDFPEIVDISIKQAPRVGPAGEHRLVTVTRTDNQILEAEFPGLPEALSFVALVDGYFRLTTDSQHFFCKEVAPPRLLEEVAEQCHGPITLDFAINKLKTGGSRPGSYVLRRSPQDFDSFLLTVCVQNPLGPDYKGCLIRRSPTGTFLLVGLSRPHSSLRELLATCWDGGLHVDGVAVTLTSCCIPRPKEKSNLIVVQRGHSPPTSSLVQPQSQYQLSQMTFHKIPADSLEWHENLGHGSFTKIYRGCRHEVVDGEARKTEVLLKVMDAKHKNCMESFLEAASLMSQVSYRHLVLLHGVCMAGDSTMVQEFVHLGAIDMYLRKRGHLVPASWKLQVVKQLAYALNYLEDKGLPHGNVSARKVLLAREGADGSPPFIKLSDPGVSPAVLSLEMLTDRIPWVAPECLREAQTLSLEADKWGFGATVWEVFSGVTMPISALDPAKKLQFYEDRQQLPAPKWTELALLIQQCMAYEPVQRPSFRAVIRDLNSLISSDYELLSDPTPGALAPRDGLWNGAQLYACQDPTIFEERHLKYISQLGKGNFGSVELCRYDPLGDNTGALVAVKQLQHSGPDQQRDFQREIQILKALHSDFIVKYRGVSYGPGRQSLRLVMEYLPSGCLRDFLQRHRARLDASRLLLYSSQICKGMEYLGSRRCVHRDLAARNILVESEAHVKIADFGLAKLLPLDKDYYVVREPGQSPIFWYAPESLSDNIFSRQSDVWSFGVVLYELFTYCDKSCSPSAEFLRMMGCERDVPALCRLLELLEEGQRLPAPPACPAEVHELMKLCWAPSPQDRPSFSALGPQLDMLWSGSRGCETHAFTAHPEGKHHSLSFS
Kind of test: JAK3 Inhibition Assay, 33P incorporation. The following applies: enzyme inhibition data (Ki), Table 11. A digest of the protocol:
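Recombinant JAK3 at 1 nM in HEPES pH 7.4 buffer with 10 mM MgCl2, 1 mM DTT and 0.01% BSA. Substrates were 5 μM ATP (200 uCi/μmole) and 1 μM poly(Glu)4Tyr, reacted 20 min at 25 °C. Stopped with TCA, and 33P incorporation counted on glass fiber filters.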

Test [3] concerns the target c-Met (Homo sapiens, UniProt P08581). The test can be described thus: c-Met Inhibition Assay, coupled enzyme system. The following applies: enzyme inhibition data (Ki), Table 11. A digest of the protocol:
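Pyruvate kinase/lactate dehydrogenase-coupled NADH assay in HEPES pH 7.5 with 80 nM c-Met, 200 μM ATP and 10 μM polyGluTyr at 30° C. Compound (0.006–12.5 μM final, 12-point) preincubated 10 min before ATP start; rates over 10 min gave Ki.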

c-Met, sequence (P08581 25-1390): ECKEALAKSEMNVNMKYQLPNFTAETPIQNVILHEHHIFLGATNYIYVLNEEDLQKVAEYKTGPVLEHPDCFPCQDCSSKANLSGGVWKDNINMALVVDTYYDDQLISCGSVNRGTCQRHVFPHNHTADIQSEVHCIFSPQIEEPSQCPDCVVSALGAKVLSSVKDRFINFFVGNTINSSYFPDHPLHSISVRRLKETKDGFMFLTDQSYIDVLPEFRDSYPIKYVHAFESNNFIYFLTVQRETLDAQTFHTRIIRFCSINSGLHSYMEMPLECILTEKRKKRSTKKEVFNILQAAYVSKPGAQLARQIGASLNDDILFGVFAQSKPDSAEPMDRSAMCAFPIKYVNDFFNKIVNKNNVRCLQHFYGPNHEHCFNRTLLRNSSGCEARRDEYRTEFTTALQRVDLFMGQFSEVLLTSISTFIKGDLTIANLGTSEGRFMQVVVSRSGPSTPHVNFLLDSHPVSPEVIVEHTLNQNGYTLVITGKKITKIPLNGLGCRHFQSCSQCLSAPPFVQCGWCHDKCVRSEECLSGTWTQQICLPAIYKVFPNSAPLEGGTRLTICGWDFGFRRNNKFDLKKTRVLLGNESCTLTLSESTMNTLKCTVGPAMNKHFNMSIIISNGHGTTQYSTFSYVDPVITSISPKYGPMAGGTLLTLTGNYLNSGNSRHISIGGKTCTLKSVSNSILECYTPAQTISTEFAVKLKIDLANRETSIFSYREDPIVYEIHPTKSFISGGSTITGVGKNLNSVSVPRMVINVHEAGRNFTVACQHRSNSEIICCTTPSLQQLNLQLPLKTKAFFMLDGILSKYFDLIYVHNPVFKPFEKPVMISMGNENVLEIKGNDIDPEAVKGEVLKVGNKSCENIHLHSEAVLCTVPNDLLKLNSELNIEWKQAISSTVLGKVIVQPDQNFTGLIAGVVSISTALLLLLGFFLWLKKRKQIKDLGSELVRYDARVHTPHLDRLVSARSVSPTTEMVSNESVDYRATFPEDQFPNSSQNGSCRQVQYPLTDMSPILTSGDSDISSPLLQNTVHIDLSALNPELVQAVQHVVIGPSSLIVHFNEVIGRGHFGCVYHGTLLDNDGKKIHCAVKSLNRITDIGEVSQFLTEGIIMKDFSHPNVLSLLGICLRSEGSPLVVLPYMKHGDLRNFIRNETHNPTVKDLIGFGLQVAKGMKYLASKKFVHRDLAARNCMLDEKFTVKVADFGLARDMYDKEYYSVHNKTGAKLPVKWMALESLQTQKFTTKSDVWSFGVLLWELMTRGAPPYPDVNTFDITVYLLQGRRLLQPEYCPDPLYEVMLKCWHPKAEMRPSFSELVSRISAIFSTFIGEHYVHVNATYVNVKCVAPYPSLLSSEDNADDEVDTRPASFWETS

Regarding `CCC(CO)Nc1cc(-c2c(N)nn3cc(C)cnc23)ncn1` (stereo not drawn) [Compound V-288], the Ki (usually a dissociation constant, usually derived from enzyme kinetics or from competition with a known ligand) in test [1] is less than 0.5 µM; in test [2], 0.5 to 5 µM; in test [3] it was less than 0.5 µM.

As to `COC[C@H](C)Nc1cc(-c2c(N)nn3cc(C)cnc23)ncn1` [Compound V-292], the Ki in test [1] was 0.5 to 5 µM; in test [2], 0.5 to 5 µM; in test [3], less than 0.5 µM.

For the compound `Cc1cnc2c(-c3cc(N[C@@H](C)C(C)C)ncn3)c(N)nn2c1` [Compound V-296], the Ki was less than 0.5 µM in test [1], 0.5 to 5 µM in test [2] and less than 0.5 µM in test [3].

Turning to `Cc1cnc2c(-c3cc(N[C@H](C)C4CCCCC4)ncn3)c(N)nn2c1` [Compound V-297], the Ki in test [1] was 0.5 to 5 µM; in test [2], 0.5 to 5 µM; in test [3], less than 0.5 µM.

For the compound `Cc1cnc2c(-c3cc(N[C@H](CO)CC(C)C)ncn3)c(N)nn2c1` [Compound V-298], the Ki in test [1] is less than 0.5 µM; in test [2], 0.5 to 5 µM; in test [3] it was less than 0.5 µM.

On to `Cc1cnc2c(-c3cc(N4CCCC4C)ncn3)c(N)nn2c1` (stereo not drawn) [Compound V-299], for which the Ki in test [1], in test [2] and in test [3] was less than 0.5 µM each time.

As for `COC[C@H]1CCCN1c1cc(-c2c(N)nn3cc(C)cnc23)ncn1` [Compound V-302], the Ki in test [1] was less than 0.5 µM; in test [2] it was 0.5 to 5 µM; in test [3] it was less than 0.5 µM.

As to `Cc1cnc2c(-c3cc(N4CCC(c5ccccc5)C4)ncn3)c(N)nn2c1` (stereo not drawn) [Compound V-303], the Ki in test [1], in test [2] and in test [3] was 0.5 to 5 µM throughout.

Take `Cc1cnc2c(-c3cc(N4CCC(CCc5ccccc5)C4)ncn3)c(N)nn2c1` (stereo not drawn) [Compound V-304]: the results for the inhibitory constant (Ki) in test [1], in test [2] and in test [3] were 0.5 to 5 µM, more than 5 µM and 0.5 to 5 µM, respectively.

On to `Cc1cnc2c(-c3cc(N4CCC[C@H]4CN4CCCC4)ncn3)c(N)nn2c1` [Compound V-305], for which the Ki is 0.5 to 5 µM in test [1], more than 5 µM in test [2] and 0.5 to 5 µM in test [3].

As to `Cc1cnc2c(-c3cc(N4CCC[C@H]4CO)ncn3)c(N)nn2c1` [Compound V-306], the inhibition constant Ki in test [1] is 0.5 to 5 µM; in test [2], 0.5 to 5 µM; in test [3], less than 0.5 µM.

For the compound `Cc1cnc2c(-c3cc(N4CCCC4c4ccc(F)cc4)ncn3)c(N)nn2c1` (stereo not drawn) [Compound V-307], the Ki is 0.5 to 5 µM in test [1], 0.5 to 5 µM in test [2] and less than 0.5 µM in test [3].

Regarding `Cc1cnc2c(-c3cc(N4CCC(S(C)(=O)=O)C4)ncn3)c(N)nn2c1` (stereo not drawn) [Compound V-308], the Ki in test [1], in test [2] and in test [3] was less than 0.5 µM throughout.

`Cc1cnc2c(-c3cc(N4CCCC(C(N)=O)C4)ncn3)c(N)nn2c1` (stereo not drawn) [Compound V-309]: the inhibitory constant (Ki) in test [1] is 0.5 to 5 µM; in test [2] it was less than 0.5 µM; in test [3], less than 0.5 µM.

For `Nc1nn2cc(CCCO)cnc2c1-c1ccccn1` [Compound V-310], the Ki in test [1] was 0.5 to 5 µM; in test [2] it was more than 5 µM; in test [3], 0.5 to 5 µM.

Take `Nc1nn2cc(CCCN3CCCC3)cnc2c1-c1ccccn1` [Compound V-311]: the Ki in test [1] was 0.5 to 5 µM; in test [2] it was more than 5 µM; in test [3], less than 0.5 µM.

`Nc1nn2cc(CCCN3CCCCC3)cnc2c1-c1ccccn1` [Compound V-312]: the Ki in test [1] was 0.5 to 5 µM; in test [2], more than 5 µM; in test [3], 0.5 to 5 µM.

For the compound `Nc1nn2cc(CCCN3CCOCC3)cnc2c1-c1ccccn1` [Compound V-313], the Ki is 0.5 to 5 µM in test [1], more than 5 µM in test [2] and 0.5 to 5 µM in test [3].

For the compound `Nc1nn2cc(CCCN3CCNCC3)cnc2c1-c1ccccn1` [Compound V-314], the Ki was 0.5 to 5 µM in test [1], more than 5 µM in test [2] and 0.5 to 5 µM in test [3].

Regarding `CCN1CCN(CCCc2cnc3c(-c4ccccn4)c(N)nn3c2)CC1` [Compound V-315], the Ki was 0.5 to 5 µM in test [1], more than 5 µM in test [2] and 0.5 to 5 µM in test [3].

On to `CN(C)CCCc1cnc2c(-c3ccccn3)c(N)nn2c1` [Compound V-316], for which the inhibitory constant (Ki) in test [1] was 0.5 to 5 µM; in test [2], more than 5 µM; in test [3], 0.5 to 5 µM.

In the case of `CC(C)CN(C)CCCc1cnc2c(-c3ccccn3)c(N)nn2c1` [Compound V-317], the Ki is 0.5 to 5 µM in test [1], more than 5 µM in test [2] and 0.5 to 5 µM in test [3].

Take `CCN(C)CCCc1cnc2c(-c3ccccn3)c(N)nn2c1` [Compound V-318]: the Ki in test [1] is 0.5 to 5 µM; in test [2] it was more than 5 µM; in test [3], 0.5 to 5 µM.

`CCN(CC)CCCc1cnc2c(-c3ccccn3)c(N)nn2c1` [Compound V-319]: the values for the Ki in test [1], in test [2] and in test [3] were 0.5 to 5 µM, more than 5 µM and less than 0.5 µM, respectively.

On to `CC(C)N(CCCc1cnc2c(-c3ccccn3)c(N)nn2c1)C(C)C` [Compound V-320], for which the Ki in test [1] is 0.5 to 5 µM; in test [2] it was more than 5 µM; in test [3], 0.5 to 5 µM.

As to `CCN(CC)CCN(C)CCCc1cnc2c(-c3ccccn3)c(N)nn2c1` [Compound V-321], the results for the Ki in test [1], in test [2] and in test [3] were 0.5 to 5 µM, more than 5 µM and 0.5 to 5 µM, respectively.

Consider `Nc1nn2cc(CCCNC3CC3)cnc2c1-c1ccccn1` [Compound V-322], for which the Ki in test [1] was 0.5 to 5 µM; in test [2] it was more than 5 µM; in test [3], 0.5 to 5 µM.

`Nc1nn2cc(CCCNC3CCCCC3)cnc2c1-c1ccccn1` [Compound V-323]: the Ki in test [1] was 0.5 to 5 µM; in test [2] it was more than 5 µM; in test [3] it was 0.5 to 5 µM.

As to `Nc1nn2cc(CCCNC3CCC3)cnc2c1-c1ccccn1` [Compound V-324], the values for the Ki in test [1], in test [2] and in test [3] were 0.5 to 5 µM, more than 5 µM and less than 0.5 µM, respectively.

For `Nc1nn2cc(CCCN3CC[C@H](O)C3)cnc2c1-c1ccccn1` [Compound V-325], the figures for the Ki in test [1], in test [2] and in test [3] were 0.5 to 5 µM, more than 5 µM and 0.5 to 5 µM, respectively.

Consider `C[C@@H](CO)NCCCc1cnc2c(-c3ccccn3)c(N)nn2c1` [Compound V-326], for which the Ki was 0.5 to 5 µM in test [1], more than 5 µM in test [2] and 0.5 to 5 µM in test [3].

For `CC(C)NCCCc1cnc2c(-c3ccccn3)c(N)nn2c1` [Compound V-327], the values for the Ki in test [1], in test [2] and in test [3] were 0.5 to 5 µM, more than 5 µM and 0.5 to 5 µM, respectively.

For `Nc1nn2cc(CCCN3CCSCC3)cnc2c1-c1ccccn1` [Compound V-328], the values for the Ki in test [1], in test [2] and in test [3] were 0.5 to 5 µM, more than 5 µM and 0.5 to 5 µM, respectively.

As for `Nc1nn2cc(CCCNCC3CCCO3)cnc2c1-c1ccccn1` (stereo not drawn) [Compound V-329], the results for the Ki in test [1], in test [2] and in test [3] were 0.5 to 5 µM, more than 5 µM and less than 0.5 µM, respectively.

For the origin of these results see patent US7528138B2, “Pyrazolo[1,5-a]pyrimidines useful as inhibitors of protein kinases” (Vertex Pharmaceuticals Incorporated, priority 2004, dated 2009).
